# Results: ChEMBL document CHEMBL3885861, “Open TG-GATES”
# Organism: Rattus norvegicus
# Assay: Open TG-GATES - Regimen: Daily Repeat
# Format: toxicity, organism-based, Sprague-Dawley
# Design: regimen Daily Repeat, gender Male, age 6 weeks
# Details: in vivo, po, 0 mg/kg, route gavage, dose level Control; for APTT / Bas / Eos / Fbg / Hb / Ht / Lym / MCH / MCHC / MCV / Mono / Neu / PT / Plat / RBC / Ret / WBC: tissue Blood; for KIDNEY_L / KIDNEY_R / KIDNEY_TOTAL: tissue Kidney; for LIVER: tissue Liver; for A/G / ALP / ALT / AST / BUN / CRE / Ca / Cl / DBIL / GLC / IP / K / LDH / Na / PL / RALB / TBIL / TC / TG / TP / gamma-GTP: tissue Plasma
compound,measurement,setting,value
CCO [ALCOHOL],TERMINAL_BW,"72 h, time 3 day",232.9 g
same,APTT,"72 h, time 3 day",17.2 s
same,Bas,"72 h, time 3 day",0%
same,Eos,"72 h, time 3 day",1%
same,Fbg,"72 h, time 3 day",205.6 mg/dL
same,Hb,"72 h, time 3 day",14.1 g/dL
same,Ht,"72 h, time 3 day",41.9%
same,Lym,"72 h, time 3 day",77%
same,MCH,"72 h, time 3 day",21.5 pg
same,MCHC,"72 h, time 3 day",33.7%
same,MCV,"72 h, time 3 day",63.8 fL
same,Mono,"72 h, time 3 day",6%
same,Neu,"72 h, time 3 day",16%
same,PT,"72 h, time 3 day",11 s
same,Plat,"72 h, time 3 day",112.5 x10_4/uL
same,RBC,"72 h, time 3 day",656.4 x10_4/ul
same,Ret,"72 h, time 3 day",6.7%
same,WBC,"72 h, time 3 day",82.3 x10_2/uL
same,KIDNEY_L,"72 h, time 3 day",1 g
same,KIDNEY_R,"72 h, time 3 day",1 g
same,KIDNEY_TOTAL,"72 h, time 3 day",2 g
same,LIVER,"72 h, time 3 day",11.2 g
same,A/G,"72 h, time 3 day",2.2
same,ALP,"72 h, time 3 day",935.2 IU/L
same,ALT,"72 h, time 3 day",39.6 IU/L
same,AST,"72 h, time 3 day",61.8 IU/L
same,BUN,"72 h, time 3 day",19.6 mg/dL
same,CRE,"72 h, time 3 day",0.6 mg/dL
same,Ca,"72 h, time 3 day",10.9 mg/dL
same,Cl,"72 h, time 3 day",104.2 meq/L
same,DBIL,"72 h, time 3 day",0.04 mg/dL
same,GLC,"72 h, time 3 day",210.6 mg/dL
same,IP,"72 h, time 3 day",8.7 mg/dL
same,K,"72 h, time 3 day",4.6 meq/L
same,LDH,"72 h, time 3 day",75.8 IU/L
same,Na,"72 h, time 3 day",141 meq/L
same,PL,"72 h, time 3 day",160.6 mg/dL
same,RALB,"72 h, time 3 day",3.9 g/dL
same,TBIL,"72 h, time 3 day",0.3 mg/dL
same,TC,"72 h, time 3 day",83.8 mg/dL
same,TG,"72 h, time 3 day",101 mg/dL
same,TP,"72 h, time 3 day",5.7 g/dL
same,gamma-GTP,"72 h, time 3 day",1.2 IU/L
same,TERMINAL_BW,"[…], time 7 day",263.1 g
same,TERMINAL_BW,"[…], time 14 day",302.6 g
same,TERMINAL_BW,"[…], time 28 day",359.3 g
same,APTT,"[…], time 7 day",17 s
same,Bas,"[…], time 7 day",0%
same,Eos,"[…], time 7 day",1.2%
same,Fbg,"[…], time 7 day",212.6 mg/dL
same,Hb,"[…], time 7 day",14.2 g/dL
same,Ht,"[…], time 7 day",42.2%
same,Lym,"[…], time 7 day",84.2%
same,MCH,"[…], time 7 day",20.7 pg
same,MCHC,"[…], time 7 day",33.7%
same,MCV,"[…], time 7 day",61.5 fL
same,Mono,"[…], time 7 day",4%
same,Neu,"[…], time 7 day",10.6%
same,PT,"[…], time 7 day",11.1 s
same,Plat,"[…], time 7 day",127.1 x10_4/uL
same,RBC,"[…], time 7 day",687.8 x10_4/ul
same,Ret,"[…], time 7 day",5.2%
same,WBC,"[…], time 7 day",114.9 x10_2/uL
same,APTT,"[…], time 14 day",19.1 s
same,Bas,"[…], time 14 day",0%
same,Eos,"[…], time 14 day",1%
same,Fbg,"[…], time 14 day",211.2 mg/dL
same,Hb,"[…], time 14 day",15.2 g/dL
same,Ht,"[…], time 14 day",44.7%
same,Lym,"[…], time 14 day",81.4%
same,MCH,"[…], time 14 day",20.3 pg
same,MCHC,"[…], time 14 day",33.9%
same,MCV,"[…], time 14 day",59.9 fL
same,Mono,"[…], time 14 day",4.2%
same,Neu,"[…], time 14 day",13.4%
same,PT,"[…], time 14 day",11.4 s
same,Plat,"[…], time 14 day",110 x10_4/uL
same,RBC,"[…], time 14 day",746.4 x10_4/ul
same,Ret,"[…], time 14 day",4.3%
same,WBC,"[…], time 14 day",102.7 x10_2/uL
same,APTT,"[…], time 28 day",17 s
same,Bas,"[…], time 28 day",0%
same,Eos,"[…], time 28 day",1.6%
same,Fbg,"[…], time 28 day",215.6 mg/dL
same,Hb,"[…], time 28 day",15.4 g/dL
same,Ht,"[…], time 28 day",45.5%
same,Lym,"[…], time 28 day",82%
same,MCH,"[…], time 28 day",19.1 pg
same,MCHC,"[…], time 28 day",33.9%
same,MCV,"[…], time 28 day",56.4 fL
same,Mono,"[…], time 28 day",5.4%
same,Neu,"[…], time 28 day",11%
same,PT,"[…], time 28 day",11.2 s
same,Plat,"[…], time 28 day",114.3 x10_4/uL
same,RBC,"[…], time 28 day",807 x10_4/ul
same,Ret,"[…], time 28 day",8%
same,WBC,"[…], time 28 day",105.1 x10_2/uL
same,KIDNEY_L,"[…], time 7 day",1.1 g
same,KIDNEY_R,"[…], time 7 day",1.2 g
same,KIDNEY_TOTAL,"[…], time 7 day",2.3 g
same,KIDNEY_L,"[…], time 14 day",1.2 g
same,KIDNEY_R,"[…], time 14 day",1.2 g
same,KIDNEY_TOTAL,"[…], time 14 day",2.4 g
same,KIDNEY_L,"[…], time 28 day",1.3 g
same,KIDNEY_R,"[…], time 28 day",1.3 g
same,KIDNEY_TOTAL,"[…], time 28 day",2.6 g
same,LIVER,"[…], time 7 day",11.9 g
same,LIVER,"[…], time 14 day",13.2 g
same,LIVER,"[…], time 28 day",13.9 g
same,A/G,"[…], time 7 day",2.2
same,ALP,"[…], time 7 day",783 IU/L
same,ALT,"[…], time 7 day",33.6 IU/L
same,AST,"[…], time 7 day",62 IU/L
same,BUN,"[…], time 7 day",20.4 mg/dL
same,CRE,"[…], time 7 day",0.5 mg/dL
same,Ca,"[…], time 7 day",10.4 mg/dL
same,Cl,"[…], time 7 day",105.6 meq/L
same,DBIL,"[…], time 7 day",0.006 mg/dL
same,GLC,"[…], time 7 day",197.8 mg/dL
same,IP,"[…], time 7 day",7.5 mg/dL
same,K,"[…], time 7 day",4.7 meq/L
same,LDH,"[…], time 7 day",81.2 IU/L
same,Na,"[…], time 7 day",141.4 meq/L
same,PL,"[…], time 7 day",143.6 mg/dL
same,RALB,"[…], time 7 day",4 g/dL
same,TBIL,"[…], time 7 day",0.4 mg/dL
same,TC,"[…], time 7 day",71.4 mg/dL
same,TG,"[…], time 7 day",108 mg/dL
same,TP,"[…], time 7 day",5.7 g/dL
same,gamma-GTP,"[…], time 7 day",0.8 IU/L
same,A/G,"[…], time 14 day",1.9
same,ALP,"[…], time 14 day",678.2 IU/L
same,ALT,"[…], time 14 day",30 IU/L
same,AST,"[…], time 14 day",61.8 IU/L
same,BUN,"[…], time 14 day",19 mg/dL
same,CRE,"[…], time 14 day",0.5 mg/dL
same,Ca,"[…], time 14 day",10.6 mg/dL
same,Cl,"[…], time 14 day",105.6 meq/L
same,DBIL,"[…], time 14 day",0.028 mg/dL
same,GLC,"[…], time 14 day",204.6 mg/dL
same,IP,"[…], time 14 day",7.3 mg/dL
same,K,"[…], time 14 day",4.4 meq/L
same,LDH,"[…], time 14 day",80.2 IU/L
same,Na,"[…], time 14 day",142.6 meq/L
same,PL,"[…], time 14 day",138.6 mg/dL
same,RALB,"[…], time 14 day",3.8 g/dL
same,TBIL,"[…], time 14 day",0.4 mg/dL
same,TC,"[…], time 14 day",64.4 mg/dL
same,TG,"[…], time 14 day",120.6 mg/dL
same,TP,"[…], time 14 day",5.9 g/dL
same,gamma-GTP,"[…], time 14 day",0.6 IU/L
same,A/G,"[…], time 28 day",1.5
same,ALP,"[…], time 28 day",606.4 IU/L
same,ALT,"[…], time 28 day",32 IU/L
same,AST,"[…], time 28 day",61.2 IU/L
same,BUN,"[…], time 28 day",20.4 mg/dL
same,CRE,"[…], time 28 day",0.6 mg/dL
same,Ca,"[…], time 28 day",10.5 mg/dL
same,Cl,"[…], time 28 day",107 meq/L
same,DBIL,"[…], time 28 day",0 mg/dL
same,GLC,"[…], time 28 day",219.2 mg/dL
same,IP,"[…], time 28 day",6.1 mg/dL
same,K,"[…], time 28 day",4.3 meq/L
same,LDH,"[…], time 28 day",81.2 IU/L
same,Na,"[…], time 28 day",140.8 meq/L
same,PL,"[…], time 28 day",148 mg/dL
same,RALB,"[…], time 28 day",3.7 g/dL
same,TBIL,"[…], time 28 day",0.2 mg/dL
same,TC,"[…], time 28 day",76.2 mg/dL
same,TG,"[…], time 28 day",148.8 mg/dL
same,TP,"[…], time 28 day",6.1 g/dL
same,gamma-GTP,"[…], time 28 day",1.6 IU/L
